# Results reported in PubChem BioAssay (NCI).
#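 Cells were grown in 96-well plates and exposed to each compound for 48 hours at five concentrations; endpoints were interpolated linearly between bracketing concentrations, or set to the highest concentration if not reached. GI50 is the concentration that inhibits growth by half. The concentration for full growth arrest is given as TGI.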
# Columns and labels:
# Experiment in all cases: inhibition of tumour cell growth, NCI panel, 48 h
# 786-0 renal = system: 786-0 renal
# A498 renal = system: A498 renal
# A549 NSCLC = system: A549 NSCLC
# ACHN renal = system: ACHN renal
# BT-549 breast = system: BT-549 breast
# CAKI-1 renal = system: CAKI-1 renal
# CCRF-CEM leukemia = system: CCRF-CEM leukemia
# COLO 205 colon = system: COLO 205 colon
# DU-145 prostate = system: DU-145 prostate
# EKVX NSCLC = system: EKVX NSCLC
# HCC-2998 colon = system: HCC-2998 colon
# HCT-116 colon = system: HCT-116 colon
# HCT-15 colon = system: HCT-15 colon
# HL-60(TB) leukemia = system: HL-60(TB) leukemia
# HOP-62 NSCLC = system: HOP-62 NSCLC
# HOP-92 NSCLC = system: HOP-92 NSCLC
# HS 578T breast = system: HS 578T breast
# HT29 colon = system: HT29 colon
# IGROV1 ovarian = system: IGROV1 ovarian
# KM12 colon = system: KM12 colon
# LOX IMVI melanoma = system: LOX IMVI melanoma
# M14 melanoma = system: M14 melanoma
# MALME-3M melanoma = system: MALME-3M melanoma
# MCF7 breast = system: MCF7 breast
# MDA-MB-231 breast = system: MDA-MB-231 breast
# MDA-MB-435 = system: MDA-MB-435
# MOLT-4 leukemia = system: MOLT-4 leukemia
# NCI-H226 lung = system: NCI-H226 lung
# NCI-H460 lung = system: NCI-H460 lung
# NCI-H522 lung = system: NCI-H522 lung
# NCI/ADR-RES ovarian = system: NCI/ADR-RES ovarian
# OVCAR-4 ovarian = system: OVCAR-4 ovarian
# OVCAR-5 ovarian = system: OVCAR-5 ovarian
# OVCAR-8 ovarian = system: OVCAR-8 ovarian
# PC-3 prostate = system: PC-3 prostate
# RPMI-8226 leukemia = system: RPMI-8226 leukemia
# RXF 393 renal = system: RXF 393 renal
# SF-268 CNS = system: SF-268 CNS
# SF-295 CNS = system: SF-295 CNS
# SF-539 CNS = system: SF-539 CNS
# SK-MEL-2 melanoma = system: SK-MEL-2 melanoma
# SK-MEL-28 melanoma = system: SK-MEL-28 melanoma
# SK-MEL-5 melanoma = system: SK-MEL-5 melanoma
# SK-OV-3 ovarian = system: SK-OV-3 ovarian
# SN12C renal = system: SN12C renal
# SNB-19 CNS = system: SNB-19 CNS
# SNB-75 CNS = system: SNB-75 CNS
# SR leukemia = system: SR leukemia
# SW-620 colon = system: SW-620 colon
# T-47D breast = system: T-47D breast
# TK-10 renal = system: TK-10 renal
# U251 CNS = system: U251 CNS
# UACC-257 melanoma = system: UACC-257 melanoma
# UACC-62 melanoma = system: UACC-62 melanoma
# UO-31 renal = system: UO-31 renal
smiles,measurement,setting,value
CCCCCCNC(=O)Oc1ccc(/C(=C(/C)c2ccc(OC)cc2)c2ccc(OCCN3CCCCCC3)cc2)cc1,GI50,786-0 renal,1.68 µM
same,TGI,786-0 renal,3.1 µM
same,GI50,A498 renal,7.14 µM
same,TGI,A498 renal,20.2 µM
same,GI50,A549 NSCLC,3.56 µM
same,TGI,A549 NSCLC,14.4 µM
same,GI50,ACHN renal,3.17 µM
same,TGI,ACHN renal,10.4 µM
same,GI50,BT-549 breast,2.66 µM
same,TGI,BT-549 breast,7.94 µM
same,GI50,CAKI-1 renal,3.84 µM
same,TGI,CAKI-1 renal,15 µM
same,GI50,CCRF-CEM leukemia,2.62 µM
same,TGI,CCRF-CEM leukemia,> 100 µM
same,GI50,COLO 205 colon,1.88 µM
same,TGI,COLO 205 colon,3.54 µM
same,GI50,DU-145 prostate,8.29 µM
same,TGI,DU-145 prostate,23.4 µM
same,GI50,EKVX NSCLC,5.15 µM
same,TGI,EKVX NSCLC,19.2 µM
same,GI50,HCC-2998 colon,2.09 µM
same,TGI,HCC-2998 colon,4.71 µM
same,GI50,HCT-116 colon,1.52 µM
same,TGI,HCT-116 colon,2.85 µM
same,GI50,HCT-15 colon,1.48 µM
same,TGI,HCT-15 colon,3.15 µM
same,GI50,HL-60(TB) leukemia,0.988 µM
same,TGI,HL-60(TB) leukemia,3.47 µM
same,GI50,HOP-62 NSCLC,6.7 µM
same,TGI,HOP-62 NSCLC,20.7 µM
same,GI50,HOP-92 NSCLC,2 µM
same,TGI,HOP-92 NSCLC,6.96 µM
same,GI50,HS 578T breast,2.75 µM
same,TGI,HS 578T breast,12.3 µM
same,GI50,HT29 colon,1.71 µM
same,TGI,HT29 colon,4.09 µM
same,GI50,IGROV1 ovarian,3.66 µM
same,TGI,IGROV1 ovarian,13.6 µM
same,GI50,KM12 colon,10.9 µM
same,TGI,KM12 colon,24.2 µM
same,GI50,LOX IMVI melanoma,1.45 µM
same,TGI,LOX IMVI melanoma,2.76 µM
same,GI50,M14 melanoma,1.81 µM
same,TGI,M14 melanoma,3.56 µM
same,GI50,MALME-3M melanoma,1.77 µM
same,TGI,MALME-3M melanoma,3.44 µM
same,GI50,MCF7 breast,0.377 µM
same,TGI,MCF7 breast,2.58 µM
same,GI50,MDA-MB-231 breast,1.89 µM
same,TGI,MDA-MB-231 breast,3.76 µM
same,GI50,MDA-MB-435,2.11 µM
same,TGI,MDA-MB-435,4.71 µM
same,GI50,MOLT-4 leukemia,2.38 µM
same,TGI,MOLT-4 leukemia,7.45 µM
same,GI50,NCI-H226 lung,10.3 µM
same,TGI,NCI-H226 lung,23.6 µM
same,GI50,NCI-H460 lung,1.9 µM
same,TGI,NCI-H460 lung,3.52 µM
same,GI50,NCI-H522 lung,4.12 µM
same,TGI,NCI-H522 lung,16.2 µM
same,GI50,NCI/ADR-RES ovarian,2.91 µM
same,TGI,NCI/ADR-RES ovarian,11.2 µM
same,GI50,OVCAR-4 ovarian,4.6 µM
same,TGI,OVCAR-4 ovarian,18.5 µM
same,GI50,OVCAR-5 ovarian,7.03 µM
same,TGI,OVCAR-5 ovarian,20.5 µM
same,GI50,OVCAR-8 ovarian,1.96 µM
same,TGI,OVCAR-8 ovarian,3.99 µM
same,GI50,PC-3 prostate,3.05 µM
same,TGI,PC-3 prostate,11.4 µM
same,GI50,RPMI-8226 leukemia,2.21 µM
same,TGI,RPMI-8226 leukemia,5.47 µM
same,GI50,RXF 393 renal,1.8 µM
same,TGI,RXF 393 renal,3.85 µM
same,GI50,SF-268 CNS,7.36 µM
same,TGI,SF-268 CNS,24 µM
same,GI50,SF-295 CNS,1.76 µM
same,TGI,SF-295 CNS,3.36 µM
same,GI50,SF-539 CNS,1.67 µM
same,TGI,SF-539 CNS,3.1 µM
same,GI50,SK-MEL-2 melanoma,2.09 µM
same,TGI,SK-MEL-2 melanoma,4.79 µM
same,GI50,SK-MEL-28 melanoma,1.86 µM
same,TGI,SK-MEL-28 melanoma,3.73 µM
same,GI50,SK-MEL-5 melanoma,1.69 µM
same,TGI,SK-MEL-5 melanoma,3.12 µM
same,GI50,SK-OV-3 ovarian,7.57 µM
same,TGI,SK-OV-3 ovarian,21.2 µM
same,GI50,SN12C renal,1.97 µM
same,TGI,SN12C renal,4.77 µM
same,GI50,SNB-19 CNS,7.29 µM
same,TGI,SNB-19 CNS,32.1 µM
same,GI50,SNB-75 CNS,5.79 µM
same,TGI,SNB-75 CNS,22.1 µM
same,GI50,SR leukemia,1.32 µM
same,TGI,SR leukemia,4.6 µM
same,GI50,SW-620 colon,2.01 µM
same,TGI,SW-620 colon,4.15 µM
same,GI50,T-47D breast,1.39 µM
same,TGI,T-47D breast,4.01 µM
same,GI50,TK-10 renal,17 µM
same,TGI,TK-10 renal,31.3 µM
same,GI50,U251 CNS,1.72 µM
same,TGI,U251 CNS,3.33 µM
same,GI50,UACC-257 melanoma,2.1 µM
same,TGI,UACC-257 melanoma,5.05 µM
same,GI50,UACC-62 melanoma,2.21 µM
same,TGI,UACC-62 melanoma,4.97 µM
same,GI50,UO-31 renal,2.14 µM
same,TGI,UO-31 renal,6.63 µM
